Reference: ChEMBL document CHEMBL1641556, “MDCK cell permeability characteristics of a sulfenamide prodrug: strategic implications in considering sulfenamide prodrugs for oral delivery of NH-acids” (Bioorg Med Chem Lett, 2011)

Columns and labels:
[1] = Hydrolytic stability of the compound assessed as half life at pH 6; type: physicochemical; settings: buffer
[2] = Apparent permeability from apical to basolateral side of MDCK cells; type: ADME, cell-based, Canis lupus familiaris; settings: dog
[3] = Apparent permeability from basolateral to apical side of MDCK cells; type: ADME, cell-based, Canis lupus familiaris; settings: dog

t1/2 [1] [yr]	Papp A→B [2] [×10⁻⁶ cm/s]	Papp B→A [3] [×10⁻⁶ cm/s]	SMILES
6.3	–	–	N[C@@H](CSNC(=O)c1ccccc1)C(=O)O
–	9	10.6	CC(=O)NC[C@H]1CN(c2ccc(N3CCOCC3)c(F)c2)C(=O)O1 [LINEZOLID]
